In ChEMBL document CHEMBL1133153, “Antitumour benzothiazoles. Part 10: the synthesis and antitumour activity of benzothiazole substituted quinol derivatives” (Bioorg Med Chem Lett, 2000) one finds IC50 data, which are given here for two compounds.

Structures are written as SMILES.

Assay type in all cases: functional, cell-based
Test [1] has as its system MCF7. The experiment in a line: The compound was tested in vitro for its antitumor activity against human breast cell line MCF-7.
Test [2] concerns MDA-MB-468. The experiment in a line: The compound was tested in vitro for its antitumor activity against human breast cell line MDA-468.
Test [3] concerns HCT-116. The experiment in a line: The compound was tested in vitro for its antitumor activity against human colon cancer cell line HCT116.
Test [4] deals with HT-29. The test is described as follows: The compound was tested in vitro for its antitumor activity against human colon cancer cell line HT-29.

The term IC50 denotes the concentration needed to halve the response being measured. A higher IC50 goes with weaker potency in that assay. Turning to `Oc1cccc(-c2nc3ccccc3s2)c1`, the IC50 in test [1] was 51.8 µM; in test [2], 0.05 µM; in test [3], greater than 100 µM; in test [4], 78.7 µM.

Take `Oc1ccc(-c2nc3ccccc3s2)cc1`: the IC50 in test [1] is 53.4 µM; in test [2] it was 0.14 µM; in test [3], greater than 100 µM; in test [4] it was 83.7 µM.
